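Cultured in 96-well plates, cells were exposed to test compound for 48 hours across five concentrations. TGI: concentration producing complete growth inhibition.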

Test systems include NCI-H460 lung; HL-60(TB) leukemia; HCC-2998 colon; UACC-62 melanoma; T-47D breast; OVCAR-5 ovarian; BT-549 breast; CCRF-CEM leukemia; HOP-92 NSCLC; SN12C renal; A498 renal; NCI/ADR-RES ovarian; OVCAR-3 ovarian; OVCAR-8 ovarian; SW-620 colon; SNB-19 CNS.
What all share (assay): growth of human tumour cells (NCI), 48 h

As for `c1ccc2c3c([nH]c2c1)C1c2[nH]c4ccccc4c2CCN1CC3`, the TGI in the assay on NCI-H460 lung was found to be 24.3 µM; in the assay with HL-60(TB) leukemia it was 66.5 µM; with HCC-2998 colon, 25.9 µM; with UACC-62 melanoma it was 33.9 µM; in the assay with T-47D breast it was 37.1 µM; in the assay on OVCAR-5 ovarian, 33.7 µM. Moreover, the TGI in the assay with BT-549 breast is 29.9 µM; in the assay with CCRF-CEM leukemia, more than 100 µM; with HOP-92 NSCLC, 15.4 µM; in the assay with SN12C renal, 32.6 µM; in the assay on A498 renal it was 34.4 µM; in the assay on NCI/ADR-RES ovarian, 5.47 µM. Also, the TGI in the assay with OVCAR-3 ovarian was determined as 25.1 µM; in the assay with OVCAR-8 ovarian it was 26.9 µM; in the assay on SW-620 colon, 45.5 µM.
Regarding `Cc1cc2c(cc1C)[n+](=O)c(N1CCN(c3ccc([N+](=O)[O-])cc3)CC1)c(C#N)n2[O-]`, the TGI with NCI-H460 lung was 70 µM; with HL-60(TB) leukemia, more than 100 µM; in the assay on HCC-2998 colon, more than 100 µM; in the assay with UACC-62 melanoma, 59.9 µM; with SNB-19 CNS, 49.6 µM; in the assay on T-47D breast it was 63.7 µM. The TGI is more than 100 µM in the assay on OVCAR-5 ovarian; more than 100 µM in the assay on BT-549 breast; more than 100 µM with CCRF-CEM leukemia; 56.7 µM in the assay on HOP-92 NSCLC; more than 100 µM with SN12C renal; more than 100 µM with A498 renal. Further, the TGI in the assay with NCI/ADR-RES ovarian is more than 100 µM; in the assay with OVCAR-8 ovarian, 49.8 µM; in the assay with SW-620 colon, more than 100 µM.
With `CN(C)c1ccc(/C=C(\NC(=O)c2ccccc2)C(=O)Nc2ccccc2C(=O)O)cc1`, the TGI with NCI-H460 lung, with HL-60(TB) leukemia, in the assay on HCC-2998 colon, with UACC-62 melanoma, with SNB-19 CNS and in the assay on T-47D breast was more than 100 µM in each case. The TGI with OVCAR-5 ovarian, in the assay on BT-549 breast, with CCRF-CEM leukemia, in the assay with HOP-92 NSCLC, with SN12C renal and in the assay with A498 renal was more than 100 µM each time. For the same compound, the TGI in the assay on NCI/ADR-RES ovarian, in the assay on OVCAR-3 ovarian, with OVCAR-8 ovarian and in the assay with SW-620 colon was more than 100 µM in each case.
In the case of `COc1ccc(N2C(=O)/C(=C\c3cccc(Oc4ccccc4)c3)S(=O)(=O)C2c2ccccc2)cc1` (configuration not stated), the TGI was more than 100 µM in the assay on NCI-H460 lung; 58.9 µM in the assay with HL-60(TB) leukemia; more than 100 µM with HCC-2998 colon; more than 100 µM in the assay with UACC-62 melanoma; more than 100 µM in the assay with SNB-19 CNS; more than 100 µM in the assay with T-47D breast. For the same compound, the TGI with OVCAR-5 ovarian was more than 100 µM; in the assay on BT-549 breast it was 91.7 µM; with CCRF-CEM leukemia it was more than 100 µM; in the assay on HOP-92 NSCLC, more than 100 µM; with SN12C renal, more than 100 µM; in the assay on A498 renal it was more than 100 µM. For the same compound, the TGI with NCI/ADR-RES ovarian was 46.2 µM; in the assay with OVCAR-3 ovarian, more than 100 µM; with SW-620 colon, more than 100 µM.
As for `O=C(CCc1ccc(O)c(O)c1)NCCc1cc(OCc2ccccc2)cc(OCc2ccccc2)c1`, the TGI in the assay on NCI-H460 lung amounted to 20.2 µM; in the assay with HL-60(TB) leukemia, 7.27 µM; in the assay on HCC-2998 colon it was 23.5 µM; with UACC-62 melanoma, 47.4 µM; in the assay with SNB-19 CNS, 18 µM; in the assay with T-47D breast, 58.2 µM. Also, the TGI with OVCAR-5 ovarian was 30.1 µM; in the assay on BT-549 breast, 20.2 µM; with CCRF-CEM leukemia, 11.5 µM; with HOP-92 NSCLC it was 35.6 µM; in the assay on SN12C renal, 28.6 µM; in the assay on A498 renal it was 37.7 µM. Also, the TGI in the assay with NCI/ADR-RES ovarian is 64 µM; with OVCAR-3 ovarian it was more than 100 µM; with OVCAR-8 ovarian, 43.4 µM; with SW-620 colon, 76.1 µM.
For `Oc1c(-c2ccccc2)sc2ccccc12`, the TGI in the assay with NCI-H460 lung is 51.2 µM; in the assay on HL-60(TB) leukemia, 45.4 µM; in the assay on HCC-2998 colon it was 39 µM; in the assay with UACC-62 melanoma, more than 100 µM; in the assay with SNB-19 CNS, more than 100 µM; with T-47D breast it was 54.4 µM. For the same compound, the TGI in the assay on OVCAR-5 ovarian was 90.3 µM; with BT-549 breast, 89.4 µM; in the assay with CCRF-CEM leukemia it was 62.5 µM; with HOP-92 NSCLC it was 57.7 µM; in the assay with A498 renal, 88.4 µM; in the assay with NCI/ADR-RES ovarian, more than 100 µM. Also, the figures for the TGI with OVCAR-3 ovarian, in the assay on OVCAR-8 ovarian and in the assay with SW-620 colon were 36.2 µM, more than 100 µM and more than 100 µM, respectively.
On to `O=P1(Oc2ccc(Cl)cc2)OCCS1` (configuration not stated), for which the TGI in the assay on NCI-H460 lung, in the assay on HL-60(TB) leukemia, in the assay with HCC-2998 colon, in the assay with UACC-62 melanoma, with SNB-19 CNS and with T-47D breast was more than 100 µM throughout. Moreover, the TGI in the assay on OVCAR-5 ovarian, in the assay with BT-549 breast, in the assay on CCRF-CEM leukemia, in the assay with HOP-92 NSCLC, in the assay on SN12C renal and in the assay with A498 renal was more than 100 µM in each case. Moreover, the TGI in the assay on NCI/ADR-RES ovarian, in the assay with OVCAR-8 ovarian and in the assay with SW-620 colon was more than 100 µM in each case.
On to `C#CCOC(=O)C(N)CSSCC(N)C(=O)O` (configuration not stated), for which the TGI with NCI-H460 lung, in the assay with HL-60(TB) leukemia, in the assay with HCC-2998 colon, with UACC-62 melanoma, in the assay on SNB-19 CNS and in the assay on T-47D breast was more than 100 µM each time. The TGI with OVCAR-5 ovarian, with BT-549 breast, in the assay with CCRF-CEM leukemia, with HOP-92 NSCLC, with SN12C renal and in the assay on A498 renal was more than 100 µM each time. Moreover, the TGI in the assay with NCI/ADR-RES ovarian, in the assay with OVCAR-8 ovarian and in the assay on SW-620 colon was more than 100 µM throughout.

The values above are taken from PubChem BioAssay (NCI).
